Results from patent publication US9334279B2, “Hepatitis C virus inhibitors” (BRISTOL-MYERS SQUIBB COMPANY, priority 2012, dated 2016).
Read-outs that look alike come from different tables or passages of the source.

Key:
[1] = system: HCV GT1a(H77) replicon; experiment: HCV replicon luciferase reporter assay, genotype 1a; type: cell-based, HCV genotype 1a; conditions: Hepatitis C virus, 72 h, HUH-7 cells, Renilla luciferase, 3 days incubation
From the text: A stable HCV GT1a(H77) replicon luciferase reporter cell line (Yanagi M, Purcell RH, Emerson S U, et al. Transcripts from a single full-length cDNA clone of hepatitis C virus are infectious when directly transfected into the liver of a chimpanzee. Proc Natl Acad Sci USA 1997; 94(16):8738-8743) was generated as described previously for the genotype 1b(Con1) replicon luciferase cell line. The replicon construct was modified by introducing mutations into the genes encoding the NS3 helicase domain (proline replaced by leucine at position 1496) and NS5A (serine to isoleucine at position 2204) to improve replication in cell culture.
(§1) HCV replicon luciferase assays were developed to monitor the inhibitory effects of compounds described in the disclosure on HCV genotypes 1a and 1b viral replication. HUH-7 cells, constitutively expressing the HCV replicon, were grown in Dulbecco's Modified Eagle Media (DMEM) (Gibco-BRL) containing 10% Fetal calf serum (FCS) (Sigma) and 1 mg/mL G418 (Gibco-BRL). Compounds were serially diluted 3 folds in DMSO for a twenty-point titration and subsequently transferred to sterile 384-well tissue-culture treated plates (Corning cat #3571). The plates were then seeded with 50 μL of cells at a density of 3.0×10^3 cells/well in DMEM containing 4% FCS (final DMSO concentration at 0.5%). After 3 days incubation at 37° C., cells were analyzed for Renilla Luciferase activity using the EnduRen as substrate (Promega cat #E6485). The EnduRen substrate was diluted in DMEM and then added to the plates to a final concentration of 7.5 μM. The plates were incubated for 2 hrs at 37° C. and then read immediately for 30 seconds with Viewlux Imager (PerkinElmer) using a luminescence program. To assess cytotoxicity of compounds, CC50 values were generated by multiplexing the EnduRen-containing plates with Cell Titer-Blue (Promega, cat #G8082). Cell-Titer Blue (3 μL) was added to each well and incubated for 8 hrs at 37° C. The fluorescence signal from each well was read, with an excitation wavelength at 525/10 nm and an emission wavelength of 598/10 nm, using the Viewlux Imager.
(§2) The EC50 values for compounds were calculated by using a four-parameter logistic equation: y=A+[…])/(1+((C/x)^D))), where A and B denotes minimal and maximal % inhibition, respectively, C is the EC50, D is the hill slope and x represents compound concentration.

[2] = system: HCV GT1b(Con1) replicon; experiment: HCV replicon luciferase reporter assay, genotype 1b; type: cell-based, HCV genotype 1b; conditions: Hepatitis C virus, 72 h, HUH-7 cells, Renilla luciferase, 3 days incubation
From the text: An HCV GT1b(Con1) replicon cell system was established as described by Lohmann V, Korner F, Koch J, Herian U, Theilmann L, Bartenschlager R., Science 285(5424):110-3 (1999) and modified to introduce a luciferase reporter (Krieger N, Lohmann V, and Bartenschlager R, J. Virol. 75(10):4614-4624 (2001)). cDNA encoding a humanized form of the Renilla luciferase gene, and a linker sequence fused directly to the 3′-end of the luciferase gene were introduced into the replicon construct using an Asc1 restriction site located in core, directly upstream of the neomycin marker gene. The adaptive mutation at position 1179 (serine to isoleucine) was also introduced (Blight K J, Kolykhalov, A A, Rice, C M, Science 290(5498):1972-1974). A stable cell line constitutively expressing this HCV replicon construct was generated by first linearizing plasmid DNAs with ScaI. RNA transcripts were synthesized in vitro using the T7 MegaScript transcription kit (Ambion, Austin, Tex.) according to manufacturer's directions. In vitro transcripts of the cDNA were transfected into the human hepatoma cell line, HUH-7. […] Resulting cell lines were characterized for positive and negative strand RNA production and protein production over time.
as §1, §2

| SMILES | EC50 ([1]; read-out: LE_1a (EC50, range)) [nM] | EC50 ([2]; read-out: LE_1b (EC50, range)) [nM] | EC50 ([1]; read-out: LE_1a (EC50)) [nM] | EC50 ([2]; read-out: LE_1b (EC50)) [nM] |
| --- | --- | --- | --- | --- |
| CC[C@@H]1C[C@H](C)CC/C=C\[C@@H]2C[C@@]2(C(=O)NS(=O)(=O)C2CC2)NC(=O)[C@@H]2C[C@@H](Oc3cc(-c4ccc(C(F)(F)F)cc4)nc(-c4nccs4)c3)CN2C(=O)[C@H]1NC(=O)OC(C)(C)C(F)(F)F [Compound 1053, 1,1,1-trifluoro-2-methylpropan-2-yl ((2R,6S,7R,9R,13aS,14aR,16aS,Z)-14a-((cyclopropylsulfonyl)carbamoyl)-7-ethyl-9-methyl-5,16-dioxo-2-((2-(thiazol-2-yl)-6-(4-(trifluoromethyl)phenyl)pyridin-4-yl)oxy)-1,2,3,5,6,7,8,9,10,11,13a,14,14a,15,16,16a-hexadecahydrocyclopropa[e]pyrrolo[1,2-a][1,4]diazacyclopentadecin-6-yl)carbamate] | 1.01 to 5 | 1.01 to 5 |  |  |
| CC(C)Oc1ccc(-c2cc(O[C@@H]3C[C@H]4C(=O)N[C@]5(C(=O)NS(=O)(=O)C6(C)CC6)C[C@H]5/C=C\CC[C@H](C)C[C@@H](C)[C@H](NC(=O)OC(C)(C)C(F)(F)F)C(=O)N4C3)cc(-c3nccs3)n2)cc1 [Compound 1008, 1,1,1-trifluoro-2-methylpropan-2-yl ((2R,6S,7R,9S,13aS,14aR,16aS,Z)-2-((2-(4-isopropoxyphenyl)-6-(thiazol-2-yl)pyridin-4-yl)oxy)-7,9-dimethyl-14a-(((1-methylcyclopropyl)sulfonyl)carbamoyl)-5,16-dioxo-1,2,3,5,6,7,8,9,10,11,13a,14,14a,15,16,16a-hexadecahydrocyclopropa[e]pyrrolo[1,2-a][1,4]diazacyclopentadecin-6-yl)carbamate] | 5.01 to 35 | 1.01 to 5 |  |  |
| CC[C@@H]1O[C@H](C)CC/C=C\[C@@H]2C[C@@]2(C(=O)NS(=O)(=O)C2(C)CC2)NC(=O)[C@@H]2C[C@@H](Oc3cc(-c4ccc(C(F)(F)F)cc4)nc(-c4nccs4)c3)CN2C(=O)[C@H]1NC(=O)OC(C)(C)C(F)(F)F [Compound 1039, 1,1,1-trifluoro-2-methylpropan-2-yl ((2R,6S,7S,9R,13aS,14aR,16aS,Z)-7-ethyl-9-methyl-14a-(((1-methylcyclopropyl)sulfonyl)carbamoyl)-5,16-dioxo-2-((2-(thiazol-2-yl)-6-(4-(trifluoromethyl)phenyl)pyridin-4-yl)oxy)-2,3,5,6,7,9,10,11,13a,14,14a,15,16,16a-tetradecahydro-1H-cyclopropa[i]pyrrolo[1,2-e][1,5,8]oxadiazacyclopentadecin-6-yl)carbamate] | 1.01 to 5 | 1.01 to 5 |  |  |
| CC(C)Oc1ccc(-c2cc(O[C@@H]3C[C@H]4C(=O)N[C@]5(C(=O)NS(=O)(=O)C6(C)CC6)C[C@H]5/C=C\CC[C@@H](C)C[C@@H](C)[C@H](NC(=O)OC5(C(F)(F)F)CCCOC5)C(=O)N4C3)cc(-c3cncs3)n2)cc1 (stereo partly drawn) [Compound 1017, 3-(trifluoromethyl)tetrahydro-2H-pyran-3-yl ((2R,6S,7R,9R,13aS,14aR,16aS,Z)-2-((2-(4-isopropoxyphenyl)-6-(thiazol-5-yl)pyridin-4-yl)oxy)-7,9-dimethyl-14a-(((1-methylcyclopropyl)sulfonyl)carbamoyl)-5,16-dioxo-1,2,3,5,6,7,8,9,10,11,13a,14,14a,15,16,16a-hexadecahydrocyclopropa[e]pyrrolo[1,2-a][1,4]diazacyclopentadecin-6-yl)carbamate] | 0.51 to 1 | 0.51 to 1 | 0.95 | 0.82 |
| CC[C@@H]1C[C@H](C)CC/C=C\[C@@H]2C[C@@]2(C(=O)NS(=O)(=O)C2(C)CC2)NC(=O)[C@@H]2C[C@@H](Oc3ccnc(-c4nc(C)cs4)c3)CN2C(=O)[C@H]1NC(=O)OC(C)(C)C(F)(F)F [Compound 1055, 1,1,1-trifluoro-2-methylpropan-2-yl ((2R,6S,7R,9R,13aS,14aR,16aS,Z)-7-ethyl-9-methyl-14a-(((1-methylcyclopropyl)sulfonyl)carbamoyl)-2-((2-(4-methylthiazol-2-yl)pyridin-4-yl)oxy)-5,16-dioxo-1,2,3,5,6,7,8,9,10,11,13a,14,14a,15,16,16a-hexadecahydrocyclopropa[e]pyrrolo[1,2-a][1,4]diazacyclopentadecin-6-yl)carbamate] | 1.01 to 5 | 1.01 to 5 |  |  |
| CC[C@@H]1C[C@H](C)CC/C=C\[C@@H]2C[C@@]2(C(=O)NS(=O)(=O)C2CC2)NC(=O)[C@@H]2C[C@@H](Oc3cc(-c4ccc(C(F)(F)F)cc4)nc(-c4nccs4)c3)CN2C(=O)[C@H]1NC(=O)OC1(C(F)(F)F)CCCOC1 (stereo partly drawn) [Compound 1054, 3-(trifluoromethyl)tetrahydro-2H-pyran-3-yl ((2R,6S,7R,9R,13aS,14aR,16aS,Z)-14a-((cyclopropylsulfonyl)carbamoyl)-7-ethyl-9-methyl-5,16-dioxo-2-((2-(thiazol-2-yl)-6-(4-(trifluoromethyl)phenyl)pyridin-4-yl)oxy)-1,2,3,5,6,7,8,9,10,11,13a,14,14a,15,16,16a-hexadecahydrocyclopropa[e]pyrrolo[1,2-a][1,4]diazacyclopentadecin-6-yl)carbamate] | 1.01 to 5 | 0.51 to 1 |  |  |
| C[C@H]1CC/C=C\[C@@H]2C[C@@]2(C(=O)NS(=O)(=O)C2(C)CC2)NC(=O)[C@@H]2C[C@@H](Oc3cc(-c4nccs4)nc(-c4nccs4)c3)CN2C(=O)[C@@H](NC(=O)OC(C)(C)C(F)(F)F)[C@H](C)C1 [Compound 1024, 1,1,1-trifluoro-2-methylpropan-2-yl ((2R,6S,7R,9S,13aS,14aR,16aS,Z)-2-((2,6-di(thiazol-2-yl)pyridin-4-yl)oxy)-7,9-dimethyl-14a-(((1-methylcyclopropyl)sulfonyl)carbamoyl)-5,16-dioxo-1,2,3,5,6,7,8,9,10,11,13a,14,14a,15,16,16a-hexadecahydrocyclopropa[e]pyrrolo[1,2-a][1,4]diazacyclopentadecin-6-yl)carbamate] | 1.01 to 5 | 0.51 to 1 |  |  |
| CC(C)Oc1ccc(-c2cc(O[C@@H]3C[C@H]4C(=O)N[C@]5(C(=O)NS(=O)(=O)C6(C)CC6)C[C@H]5/C=C\CC[C@@H](C)C[C@@H](C)[C@H](NC(=O)OC(C)(C)C(F)(F)F)C(=O)N4C3)cc(-c3ccccn3)n2)cc1 [Compound 1021, 1,1,1-trifluoro-2-methylpropan-2-yl ((2R,6S,7R,9R,13aS,14aR,16aS,Z)-2-((6-(4-isopropoxyphenyl)-[2,2′-bipyridin]-4-yl)oxy)-7,9-dimethyl-14a-(((1-methylcyclopropyl)sulfonyl)carbamoyl)-5,16-dioxo-1,2,3,5,6,7,8,9,10,11,13a,14,14a,15,16,16a-hexadecahydrocyclopropa[e]pyrrolo[1,2-a][1,4]diazacyclopentadecin-6-yl)carbamate] | 1.01 to 5 | 0.51 to 1 |  |  |
| CC(C)Oc1ccc(-c2cc(O[C@@H]3C[C@H]4C(=O)N[C@]5(C(=O)NS(=O)(=O)C6(C)CC6)C[C@H]5/C=C\CC[C@@H](C)C[C@@H](C)[C@H](NC(=O)OC(C)(C)C(F)(F)F)C(=O)N4C3)cc(-c3nccs3)n2)cc1 [Compound 1007, 1,1,1-trifluoro-2-methylpropan-2-yl ((2R,6S,7R,9R,13aS,14aR,16aS,Z)-2-((2-(4-isopropoxyphenyl)-6-(thiazol-2-yl)pyridin-4-yl)oxy)-7,9-dimethyl-14a-(((1-methylcyclopropyl)sulfonyl)carbamoyl)-5,16-dioxo-1,2,3,5,6,7,8,9,10,11,13a,14,14a,15,16,16a-hexadecahydrocyclopropa[e]pyrrolo[1,2-a][1,4]diazacyclopentadecin-6-yl)carbamate] | 1.01 to 5 | 1.01 to 5 |  |  |
